Results on three compounds are retold here after patent publication US7109193B2, “Tricyclic diazepines tocolytic oxytocin receptor antagonists” (Wyeth, priority 2001, dated 2006).

Molecules are shown by their SMILES.

One may read the inhibition as the change of the read-out against control, counted positive when it falls.

For this assay, the target named is T1, human oxytocin receptor (Homo sapiens, UniProt P30559).
T1 construct: host or cells: CHO cells (pcDNA3.1 vector)
T1 sequence (P30559 1-389): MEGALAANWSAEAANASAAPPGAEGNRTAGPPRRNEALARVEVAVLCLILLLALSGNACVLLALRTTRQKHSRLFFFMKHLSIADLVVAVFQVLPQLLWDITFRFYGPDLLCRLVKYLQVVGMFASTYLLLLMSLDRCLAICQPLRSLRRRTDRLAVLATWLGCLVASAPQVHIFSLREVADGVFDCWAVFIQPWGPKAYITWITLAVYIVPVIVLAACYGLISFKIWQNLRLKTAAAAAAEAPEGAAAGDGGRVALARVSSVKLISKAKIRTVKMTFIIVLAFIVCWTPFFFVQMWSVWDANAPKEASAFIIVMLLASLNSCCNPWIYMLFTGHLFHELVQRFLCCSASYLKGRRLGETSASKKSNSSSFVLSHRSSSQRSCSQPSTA
The assay is described as follows: Oxytocin binding in Chinese Hamster Ovary cell membranes expressing human oxytocin receptors. The settings on record: 100 nM, CHO cell membranes, [3H]oxytocin, values without parentheses, read-out: OT % inhibition @ 100% nM.

In the case of `COc1ccccc1-c1ccc(C(=O)N2Cc3ccc(C(=O)N4CCCN(C)CC4)n3Cc3ccccc32)cc1C` [Example 62, {10-[(2′-Methoxy-2-methyl[1,1′-biphenyl]-4-yl)carbonyl]-10,11-dihydro-5H-pyrrolo[2,1-c][1,4]benzodiazepin-3-yl}(4-methyl-1,4-diazepan-1-yl)methanone], the inhibition at 0.1 µM was determined as 91%.

In the case of `COc1cccc(-c2ccc(C(=O)N3Cc4ccc(C(=O)N5CCN(C)CC5)n4Cc4ccccc43)cc2OC)c1` [Example 57, {10-[(2,3′-Dimethoxy[1,1′-biphenyl]-4-yl)carbonyl]-10,11-dihydro-5H-pyrrolo[2,1-c][1,4]benzodiazepin-3-yl}(4-methyl-1-piperazinyl)methanone], the inhibition at 0.1 µM stood at 76%.

Take `COc1cc(-c2ccccc2C)c(Cl)cc1C(=O)N1Cc2ccc(C(=O)N[C@@H]3CN4CCC3CC4)n2Cc2ccccc21` [Example 297, N-[(3S)-1-Azabicyclo[2.2.2]oct-3-yl]-10-[(6-chloro-3-methoxy-2′-methyl-[1,1′-biphenyl]-4-yl)carbonyl]-10,11-dihydro-5H-pyrrolo[2,1-c][1,4]benzodiazepine-3-carboxamide]: the inhibition at 0.1 µM was determined as 73%.
